ChEMBL document CHEMBL6177983, “PSMA-Guided PROTAC Degraders for Tumor-Specific Protein Degradation in Prostate Cancer” (J Med Chem, 2025)
Calls of active or inactive are those of the source. The rule behind the calls is not given here.

Tests used:
DU-145 = experiment: Cytotoxicity against human DU-145 cells assessed as cell viability incubated for 72 hrs by CCK-8 assay; assay type: functional, cell-based
[1] = target: T1, von Hippel-Lindau disease tumor suppressor/Bromodomain-containing protein 4 (Homo sapiens) (UniProt O60885+P40337); experiment: PROTAC activity at BRD4/VHL in human DU-145 cells assessed as induction of BRD4 degradation up to 100 nM incubated for 24 hrs by Western blotting analysis; assay type: cell-based
[2] = Half life in BALB/c mouse at 0.14 mmol/L, iv; assay type: ADME; details: in vivo
[3] = target: T1, von Hippel-Lindau disease tumor suppressor/Bromodomain-containing protein 4 (Homo sapiens); experiment: PROTAC activity at BRD4/VHL in human J82 cells assessed as induction of BRD4 degradation up to 100 nM incubated for 24 hrs by Western blotting analysis; assay type: cell-based
[4] = Toxicity in male BALB/c mouse assessed as effect on lung weight at 0.47 mmol/L, iv administered every day for 21 days; assay type: organism-based; details: in vivo, 504 h, time 21 day
[5] = target: T1, von Hippel-Lindau disease tumor suppressor/Bromodomain-containing protein 4 (Homo sapiens); experiment: PROTAC activity at BRD4/VHL in human LNCaP cells assessed as induction of BRD4 degradation at 10 nM incubated for 8 hrs in presence of VH032 by Western blotting analysis; assay type: cell-based
[6] = target: T1, von Hippel-Lindau disease tumor suppressor/Bromodomain-containing protein 4 (Homo sapiens); experiment: PROTAC activity at BRD4/VHL in human LNCaP cells assessed as induction of BRD4 degradation at 10 nM incubated for 8 hrs in presence of MLN4924 by Western blotting analysis; assay type: cell-based
[7] = Drug concentration in male BALB/c mouse plasma at 0.14 mmol/L, iv; assay type: ADME, cell-free
[8] = Drug concentration in male BALB/c mouse Tumor at 0.14 mmol/L, iv; assay type: ADME, tissue-based, Neoplasm; details: in vivo
[9] = Toxicity in male BALB/c mouse assessed as effect on liver weight at 0.47 mmol/L, iv administered every day for 21 days; assay type: organism-based; details: in vivo, 504 h, time 21 day
[10] = Toxicity in male BALB/c mouse assessed as effect on spleen weight at 0.47 mmol/L, iv administered every day for 21 days; assay type: organism-based; details: in vivo, 504 h, time 21 day
[11] = target: T1, von Hippel-Lindau disease tumor suppressor/Bromodomain-containing protein 4 (Homo sapiens); experiment: PROTAC activity at BRD4/VHL in human LNCaP cells expressing PSMA assessed as induction of BRD4 degradation incubated for 24 hrs by Western blotting analysis; assay type: cell-based; details: dose <= 100.0 nM
[12] = Toxicity in male BALB/c mouse assessed as effect on heart weight at 0.47 mmol/L, iv administered every day for 21 days; assay type: organism-based; details: in vivo, 504 h, time 21 day
HEK-293T = experiment: Cytotoxicity against HEK293T cells assessed as cell viability incubated for 72 hrs by CCK-8 assay; assay type: toxicity, cell-based; details: human
[13] = Toxicity in male BALB/c mouse assessed as effect on tumor weight at 0.47 mmol/L, iv administered every day for 21 days; assay type: organism-based; details: in vivo, 504 h, time 21 day
[14] = target: T1, von Hippel-Lindau disease tumor suppressor/Bromodomain-containing protein 4 (Homo sapiens); experiment: PROTAC activity at BRD4/VHL in HEK293 cells assessed as induction of BRD4 degradation up to 100 nM incubated for 24 hrs by Western blotting analysis; assay type: cell-based
LNCaP = experiment: Antitumor activity against human LNCaP cells xenografted in BALB/c mouse assessed as tumor growth inhibition at 0.47 mmol/L, iv administered every day for 21 days; assay type: functional; details: 504 h, time 21 day, read-out: TGI
[15] = target: T1, von Hippel-Lindau disease tumor suppressor/Bromodomain-containing protein 4 (Homo sapiens); experiment: PROTAC activity at BRD4/VHL in human VCaP cells expressing PSMA assessed as induction of BRD4 degradation incubated for 24 hrs by Western blotting analysis; assay type: cell-based; details: dose <= 100.0 nM
[16] = Toxicity in male BALB/c mouse assessed as body weight loss at 0.47 mmol/L, iv administered every day for 21 days; assay type: organism-based; details: in vivo, 504 h, time 21 day
[17] = target: T1, von Hippel-Lindau disease tumor suppressor/Bromodomain-containing protein 4 (Homo sapiens); experiment: PROTAC activity at BRD4/VHL PSMA knockdown in human LNCaP cells assessed as induction of BRD4 degradation at 3 nM incubated for 12 hrs by Western blotting analysis; assay type: cell-based
J82 = experiment: Cytotoxicity against human J82 cells assessed as cell viability incubated for 72 hrs by CCK-8 assay; assay type: functional, cell-based
[18] = target: T1, von Hippel-Lindau disease tumor suppressor/Bromodomain-containing protein 4 (Homo sapiens); experiment: PROTAC activity at BRD4/VHL in human 22Rv1 cells expressing PSMA assessed as induction of BRD4 degradation incubated for 24 hrs by Western blotting analysis; assay type: cell-based; details: dose <= 100.0 nM
[19] = target: T1, von Hippel-Lindau disease tumor suppressor/Bromodomain-containing protein 4 (Homo sapiens); experiment: PROTAC activity at BRD4/VHL in human LNCaP cells assessed as induction of BRD4 degradation at 3 nM incubated for 24 hrs in presence of filipin by Western blotting analysis; assay type: cell-based
[20] = Toxicity in male BALB/c mouse assessed as effect on kidney weight at 0.47 mmol/L, iv administered every day for 21 days; assay type: organism-based; details: in vivo, 504 h, time 21 day
[21] = target: T1, von Hippel-Lindau disease tumor suppressor/Bromodomain-containing protein 4 (Homo sapiens); experiment: PROTAC activity at BRD4/VHL in human LNCaP cells assessed as induction of BRD4 degradation at 10 nM incubated for 8 hrs in presence of MG132 by Western blotting analysis; assay type: cell-based

T1 sequence (P40337 whole entry, looked up, other chains not shown): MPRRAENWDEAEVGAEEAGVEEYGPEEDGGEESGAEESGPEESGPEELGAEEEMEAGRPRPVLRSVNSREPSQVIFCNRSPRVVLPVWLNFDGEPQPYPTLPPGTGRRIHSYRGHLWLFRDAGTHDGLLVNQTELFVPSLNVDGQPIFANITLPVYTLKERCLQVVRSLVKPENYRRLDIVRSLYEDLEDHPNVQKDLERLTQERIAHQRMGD

**Q.** Which Activity (DU-145) does the source give for `Cc1ncsc1-c1ccc([C@H](C)NC(=O)[C@@H]2C[C@@H](OC(=O)CCCc3cn(CCCNC(=O)[C@H](Cc4ccc(O)cc4)NC(=O)[C@H](Cc4ccccc4)NC(=O)CCC(=O)NCCCCCC(=O)N(CCCC[C@H](NC(=O)N[C@@H](CCC(=O)O)C(=O)O)C(=O)O)Cc4cccc(Cl)c4)nn3)CN2C(=O)[C@@H](NC(=O)COCCCOCCNC(=O)C[C@@H]2N=C(c3ccc(Cl)cc3)c3c(sc(C)c3C)-n3c(C)nnc32)C(C)(C)C)cc1` here?
**A.** The Activity was “inactive”.

**Q.** What about the Activity [1] of the same compound?
**A.** The Activity was “inactive”.

**Q.** And the half-life [2]?
**A.** The half-life was 4.19 h.

**Q.** What about the Activity [3] of the same compound?
**A.** The Activity was “inactive”.

**Q.** And the Activity [4]?
**A.** Its Activity is “Non-toxic”.

**Q.** What about the Activity [5] of the same compound?
**A.** The Activity was “Active”.

**Q.** What about the Activity [6] of the same compound?
**A.** Its Activity is “Active”.

**Q.** What about the Cp [7] of the same compound?
**A.** Its Cp is “Active”.

**Q.** And the Drug uptake [8]?
**A.** The Drug uptake was “Active”.

**Q.** And the Activity [9]?
**A.** The Activity was “Non-toxic”.

**Q.** What about the Activity [10] of the same compound?
**A.** Its Activity is “Non-toxic”.

**Q.** What about the Activity [11] of the same compound?
**A.** The Activity was “Dose-dependent-effect”.

**Q.** And the Activity [12]?
**A.** The Activity was “Non-toxic”.

**Q.** And the Activity (HEK-293T)?
**A.** Its Activity is “Non-toxic”.

**Q.** And the Activity [13]?
**A.** Its Activity is “Non-toxic”.

**Q.** What about the Activity [14] of the same compound?
**A.** Its Activity is “inactive”.

**Q.** What about the inhibition in vivo at 470 µM (LNCaP) of the same compound?
**A.** Its inhibition in vivo at 470 µM is 88.6%.

**Q.** And the Activity [15]?
**A.** Its Activity is “Dose-dependent-effect”.

**Q.** And the Activity [16]?
**A.** The Activity was “Non-toxic”.

**Q.** What about the Activity [17] of the same compound?
**A.** Its Activity is “Active”.

**Q.** What about the Activity (J82) of the same compound?
**A.** Its Activity is “inactive”.

**Q.** And the Activity [18]?
**A.** The Activity was “Dose-dependent-effect”.

**Q.** And the Activity [19]?
**A.** Its Activity is “Active”.

**Q.** What about the Activity [20] of the same compound?
**A.** The Activity was “Non-toxic”.

**Q.** What about the Activity [21] of the same compound?
**A.** The Activity was “Active”.
